Test results taken from ChEMBL document CHEMBL1201862, “PubChem BioAssay data set” (2004).
Active and inactive are the calls of the source.

Legend:
[1] = biological target: Alkaline phosphatase, placental type (Homo sapiens, UniProt P05187); experiment: human placental alkaline phosphatase inhibition – biochemical, luminescence, confirmation (AID 1512); assay type: functional
[2] = biological target: T1, Alkaline phosphatase, tissue-nonspecific isozyme (Homo sapiens, UniProt P05186); experiment: potency against alkaline phosphatase TNAP – biochemical, luminescent, dose response, SAR follow-up (AID 1056)
T1 sequence (P05186 whole entry): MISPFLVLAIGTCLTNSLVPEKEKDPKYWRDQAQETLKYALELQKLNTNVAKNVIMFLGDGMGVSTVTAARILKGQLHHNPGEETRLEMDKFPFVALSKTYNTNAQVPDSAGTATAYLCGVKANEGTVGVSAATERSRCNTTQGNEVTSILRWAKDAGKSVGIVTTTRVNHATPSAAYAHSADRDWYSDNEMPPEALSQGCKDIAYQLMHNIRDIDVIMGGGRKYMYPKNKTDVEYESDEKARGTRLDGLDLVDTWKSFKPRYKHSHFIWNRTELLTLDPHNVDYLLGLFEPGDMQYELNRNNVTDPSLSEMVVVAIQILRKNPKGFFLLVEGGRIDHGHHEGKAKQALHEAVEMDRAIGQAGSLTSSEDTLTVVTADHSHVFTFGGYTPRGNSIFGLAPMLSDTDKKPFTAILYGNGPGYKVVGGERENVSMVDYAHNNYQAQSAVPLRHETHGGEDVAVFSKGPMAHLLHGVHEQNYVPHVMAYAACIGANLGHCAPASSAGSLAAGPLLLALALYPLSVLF

HeLa = experiment: viability loss in HeLa cells – cell-based, 24 h, cherry-picked samples, cytotoxicity control, dose response (AID 504726); assay type: functional; conditions: Homo sapiens;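 also: potency for cytotoxicity as loss of luminescence signal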
HEK293 [3] = experiment: cells; assay type: functional, cell-based; conditions: Homo sapiens
Streptococcus = experiment: GAS UMAA2166 growth inhibition – luminescence, BacTiterGlo, counter-screen for streptokinase expression inhibitor project, dose response (AID 1915); assay type: functional, organism-based;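 also: potency for reduction of bacterial viability or growth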
Streptokinase A = biological target: T2, Streptokinase A (Streptococcus pyogenes serotype M1, UniProt P10520); experiment: viability-normalized secreted streptokinase activity reduction – plasminogen activation absorbance, OD405, dose response (AID 1914); assay type: functional, Streptococcus pyogenes M1 GAS;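 also: secreted streptokinase activity via plasminogen activation per viability signal from cell pellet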
T2 sequence (P10520 whole entry): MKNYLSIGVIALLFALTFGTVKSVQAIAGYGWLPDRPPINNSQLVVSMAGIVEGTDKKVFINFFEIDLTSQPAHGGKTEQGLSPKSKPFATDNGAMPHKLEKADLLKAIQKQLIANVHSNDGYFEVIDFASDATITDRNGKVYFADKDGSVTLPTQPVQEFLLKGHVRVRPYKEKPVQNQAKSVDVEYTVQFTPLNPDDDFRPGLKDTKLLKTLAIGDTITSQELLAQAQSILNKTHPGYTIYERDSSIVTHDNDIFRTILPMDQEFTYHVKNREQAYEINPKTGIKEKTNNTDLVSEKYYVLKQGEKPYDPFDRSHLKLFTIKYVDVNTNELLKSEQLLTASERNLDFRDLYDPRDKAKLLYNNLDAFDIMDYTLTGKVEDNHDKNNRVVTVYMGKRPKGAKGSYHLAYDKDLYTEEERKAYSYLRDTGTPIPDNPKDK

HEK293 [4] = experiment: cells; assay type: functional, cell-based; conditions: Homo sapiens; remark: listed apart in the source
HEK293 [5] = experiment: cells; assay type: functional, cell-based; conditions: Homo sapiens; remark: listed apart in the source
[6] = biological target: Nucleotide-binding oligomerization domain-containing protein 2 (Homo sapiens, UniProt Q9HC29); experiment: inhibition of NOD2-driven NF-kB reporter – cell-based, luminescence, uHTS, HEK293 (AID 1566); assay type: functional
HEK293 [7] = experiment: inhibition of NOD1-driven NF-kB reporter – cell-based, luminescence, uHTS, primary screen (AID 1578); assay type: functional; conditions: Homo sapiens
HEK293 [8] = experiment: NOD2 signaling inhibitors in MDP-stimulated cells, cell-based, uHTS, luminescence (AID 2001); assay type: functional; conditions: Homo sapiens
[9] = tested on: Streptococcus sp. 'group A'; experiment: Streptococcus pyogenes SK(-)GAS viability under kanamycin – luminescence, BacTiterGlo, confirmation, counter-screen for streptokinase expression inhibitor project, dose response (AID 1900); assay type: functional, organism-based
Prothrombin = Prothrombin (Homo sapiens, UniProt P00734); experiment: Thrombin 1536 HTS Dose Response Confirmation. [Related pubchem assays: 1046 (Thrombin 1536 HTS; hits were confirmed in this assay)]; assay type: functional
[10] = viability loss of HMLE_sh_eGFP cells – cell-based, luminescence, counter-screen for HMLE_sh_ECad selective toxicity project, dose response (AID 463074); assay type: functional, Homo sapiens;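 also: HMLE human mammary epithelial cells expressing control shRNA against eGFP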
[11] = Luminescence Cell-Based Dose Retest to Confirm Inhibitors of Cancer Stem Cells. [Related pubchem assays (depositor defined):AID2717, AID2721]; assay type: functional; conditions: Homo sapiens
[12] = biological target: Peroxisome proliferator-activated receptor gamma/Nuclear receptor coactivator 1 (Homo sapiens, UniProt P37231); assay type: functional;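 also: agonist potency as compounds enhance coactivator SRC-1 recruitment to PPARgamma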
X-box-binding protein 1 = biological target: T3, X-box-binding protein 1 (Homo sapiens, UniProt P17861); assay type: functional, Cricetulus griseus;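 also: confirmatory dose-response counter-screen serving a CHOP assay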
T3 sequence (P17861 whole entry): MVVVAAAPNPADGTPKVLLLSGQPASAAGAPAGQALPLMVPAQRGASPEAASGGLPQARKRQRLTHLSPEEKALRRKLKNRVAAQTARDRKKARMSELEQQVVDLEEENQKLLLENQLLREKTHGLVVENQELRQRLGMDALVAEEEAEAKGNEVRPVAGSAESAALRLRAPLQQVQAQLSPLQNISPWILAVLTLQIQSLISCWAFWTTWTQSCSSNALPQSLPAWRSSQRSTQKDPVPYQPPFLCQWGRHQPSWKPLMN

[13] = biological target: Peroxisome proliferator-activated receptor gamma/Nuclear receptor coactivator 3 (Homo sapiens, UniProt P37231); assay type: functional;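 also: agonist potency for raising coactivator recruitment to the receptor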
[14] = biological target: Peroxisome proliferator-activated receptor gamma/Nuclear receptor coactivator 2 (Homo sapiens, UniProt P37231); assay type: functional;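 also: agonist potency for raising coactivator recruitment to the receptor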
fMet-Leu-Phe receptor = biological target: T4, fMet-Leu-Phe receptor (Homo sapiens, UniProt P21462); experiment: formyl peptide receptor binders – dose response (AID 519); assay type: functional
T4 sequence (P21462 whole entry): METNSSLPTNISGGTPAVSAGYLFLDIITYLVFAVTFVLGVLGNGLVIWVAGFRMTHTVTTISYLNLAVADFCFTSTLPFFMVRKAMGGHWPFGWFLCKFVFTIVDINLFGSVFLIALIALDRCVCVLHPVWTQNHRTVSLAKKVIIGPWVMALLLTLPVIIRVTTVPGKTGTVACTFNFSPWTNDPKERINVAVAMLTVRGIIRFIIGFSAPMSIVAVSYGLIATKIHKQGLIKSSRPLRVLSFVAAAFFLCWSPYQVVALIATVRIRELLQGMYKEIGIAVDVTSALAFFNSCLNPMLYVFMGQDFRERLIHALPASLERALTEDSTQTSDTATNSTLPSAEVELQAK

NS3 = NS3 (Hepatitis C virus, UniProt A3EZJ3); experiment: PubChem AID 2173; design: species or system Hepacivirus hominis
Vero [15] = experiment: cells; assay type: functional, cell-based; conditions: Chlorocebus sabaeus
Paired box protein Pax-8 = Paired box protein Pax-8 (Homo sapiens, UniProt Q06710); experiment: PAX8 transcriptional activity inhibition in RMG-I – RMG-I cells, luciferase, cherry-pick, dose response (AID 687027); assay type: functional, cell-based;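 also: luciferase reporter driven by Pax8 target thyroperoxidase promoter measured by SteadyGlo luminescence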
Vero [16] = experiment: cells; assay type: functional; conditions: Chlorocebus sabaeus

Sequence of Alkaline phosphatase, placental type (P05187 whole entry): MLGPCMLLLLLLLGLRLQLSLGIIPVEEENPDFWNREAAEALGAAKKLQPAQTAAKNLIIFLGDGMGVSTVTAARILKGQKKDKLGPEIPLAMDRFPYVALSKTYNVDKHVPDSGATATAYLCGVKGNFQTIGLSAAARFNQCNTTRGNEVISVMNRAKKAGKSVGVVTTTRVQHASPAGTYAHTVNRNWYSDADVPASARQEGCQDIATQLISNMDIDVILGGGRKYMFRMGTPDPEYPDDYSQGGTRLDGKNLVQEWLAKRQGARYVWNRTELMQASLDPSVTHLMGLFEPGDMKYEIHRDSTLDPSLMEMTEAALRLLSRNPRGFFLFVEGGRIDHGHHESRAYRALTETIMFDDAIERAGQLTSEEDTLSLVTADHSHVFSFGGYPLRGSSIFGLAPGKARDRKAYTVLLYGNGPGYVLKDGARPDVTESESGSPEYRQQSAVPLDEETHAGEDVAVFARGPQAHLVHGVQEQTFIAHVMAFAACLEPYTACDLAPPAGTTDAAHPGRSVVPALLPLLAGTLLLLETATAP
Sequence of Nucleotide-binding oligomerization domain-containing protein 2 (Q9HC29 whole entry, the tested form may be a part): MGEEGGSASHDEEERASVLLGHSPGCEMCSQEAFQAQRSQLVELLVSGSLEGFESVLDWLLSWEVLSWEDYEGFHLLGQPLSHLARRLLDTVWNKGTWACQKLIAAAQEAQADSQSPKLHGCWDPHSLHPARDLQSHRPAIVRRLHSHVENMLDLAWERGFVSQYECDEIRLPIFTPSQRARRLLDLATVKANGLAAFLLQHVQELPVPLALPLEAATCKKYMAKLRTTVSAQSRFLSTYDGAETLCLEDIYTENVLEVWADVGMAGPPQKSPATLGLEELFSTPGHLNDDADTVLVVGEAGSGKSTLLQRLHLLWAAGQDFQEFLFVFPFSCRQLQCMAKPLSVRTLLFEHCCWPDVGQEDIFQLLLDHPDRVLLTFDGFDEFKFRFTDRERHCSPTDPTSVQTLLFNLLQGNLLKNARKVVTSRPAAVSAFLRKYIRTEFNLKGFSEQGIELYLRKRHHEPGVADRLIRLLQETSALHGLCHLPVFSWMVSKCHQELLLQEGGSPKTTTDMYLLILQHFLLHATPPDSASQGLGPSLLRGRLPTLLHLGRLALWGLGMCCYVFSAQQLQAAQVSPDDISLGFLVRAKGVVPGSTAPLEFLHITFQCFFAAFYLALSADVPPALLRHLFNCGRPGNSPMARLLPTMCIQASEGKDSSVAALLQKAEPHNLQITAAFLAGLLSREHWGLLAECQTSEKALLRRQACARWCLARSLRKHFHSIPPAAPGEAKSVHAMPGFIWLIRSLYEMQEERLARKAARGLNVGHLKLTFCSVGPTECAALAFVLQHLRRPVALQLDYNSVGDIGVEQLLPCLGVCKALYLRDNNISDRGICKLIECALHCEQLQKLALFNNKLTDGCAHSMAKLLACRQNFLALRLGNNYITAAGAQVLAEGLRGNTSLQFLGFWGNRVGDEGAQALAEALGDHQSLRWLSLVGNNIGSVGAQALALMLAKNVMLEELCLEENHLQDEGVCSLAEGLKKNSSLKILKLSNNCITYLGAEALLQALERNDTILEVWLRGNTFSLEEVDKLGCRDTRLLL
Sequence of NS3 (A3EZJ3 whole entry): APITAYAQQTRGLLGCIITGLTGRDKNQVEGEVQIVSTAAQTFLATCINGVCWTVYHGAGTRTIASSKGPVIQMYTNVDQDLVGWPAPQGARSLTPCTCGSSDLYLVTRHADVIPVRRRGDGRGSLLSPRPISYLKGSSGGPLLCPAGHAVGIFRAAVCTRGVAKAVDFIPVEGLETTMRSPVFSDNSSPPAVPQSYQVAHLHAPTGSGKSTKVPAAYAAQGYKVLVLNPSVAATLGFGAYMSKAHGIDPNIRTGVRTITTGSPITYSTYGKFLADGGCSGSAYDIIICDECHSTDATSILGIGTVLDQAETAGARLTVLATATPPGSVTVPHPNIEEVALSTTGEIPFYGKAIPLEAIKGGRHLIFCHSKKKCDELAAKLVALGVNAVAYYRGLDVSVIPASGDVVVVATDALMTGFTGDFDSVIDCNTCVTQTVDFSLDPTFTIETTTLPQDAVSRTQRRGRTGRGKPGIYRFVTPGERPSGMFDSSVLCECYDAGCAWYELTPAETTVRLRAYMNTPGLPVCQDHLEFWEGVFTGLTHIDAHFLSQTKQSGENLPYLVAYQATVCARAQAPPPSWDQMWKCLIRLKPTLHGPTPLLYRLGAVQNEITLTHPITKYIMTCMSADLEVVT
Sequence of Peroxisome proliferator-activated receptor gamma/Nuclear receptor coactivator 3 (P37231 whole entry): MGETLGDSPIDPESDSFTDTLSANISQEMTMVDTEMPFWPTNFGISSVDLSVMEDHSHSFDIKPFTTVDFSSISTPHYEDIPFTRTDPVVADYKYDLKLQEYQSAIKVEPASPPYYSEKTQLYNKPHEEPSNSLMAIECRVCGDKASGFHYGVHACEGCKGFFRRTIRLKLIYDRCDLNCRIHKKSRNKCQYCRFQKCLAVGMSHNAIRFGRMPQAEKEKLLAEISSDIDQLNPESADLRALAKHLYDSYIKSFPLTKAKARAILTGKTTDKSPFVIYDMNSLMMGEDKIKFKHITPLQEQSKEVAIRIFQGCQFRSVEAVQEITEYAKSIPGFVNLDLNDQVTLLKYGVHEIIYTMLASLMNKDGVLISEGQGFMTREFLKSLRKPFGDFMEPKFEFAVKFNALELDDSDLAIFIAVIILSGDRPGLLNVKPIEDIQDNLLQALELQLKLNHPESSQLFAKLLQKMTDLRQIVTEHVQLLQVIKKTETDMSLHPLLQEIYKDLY
Sequence of Peroxisome proliferator-activated receptor gamma/Nuclear receptor coactivator 3 (Q9Y6Q9 whole entry, further chain): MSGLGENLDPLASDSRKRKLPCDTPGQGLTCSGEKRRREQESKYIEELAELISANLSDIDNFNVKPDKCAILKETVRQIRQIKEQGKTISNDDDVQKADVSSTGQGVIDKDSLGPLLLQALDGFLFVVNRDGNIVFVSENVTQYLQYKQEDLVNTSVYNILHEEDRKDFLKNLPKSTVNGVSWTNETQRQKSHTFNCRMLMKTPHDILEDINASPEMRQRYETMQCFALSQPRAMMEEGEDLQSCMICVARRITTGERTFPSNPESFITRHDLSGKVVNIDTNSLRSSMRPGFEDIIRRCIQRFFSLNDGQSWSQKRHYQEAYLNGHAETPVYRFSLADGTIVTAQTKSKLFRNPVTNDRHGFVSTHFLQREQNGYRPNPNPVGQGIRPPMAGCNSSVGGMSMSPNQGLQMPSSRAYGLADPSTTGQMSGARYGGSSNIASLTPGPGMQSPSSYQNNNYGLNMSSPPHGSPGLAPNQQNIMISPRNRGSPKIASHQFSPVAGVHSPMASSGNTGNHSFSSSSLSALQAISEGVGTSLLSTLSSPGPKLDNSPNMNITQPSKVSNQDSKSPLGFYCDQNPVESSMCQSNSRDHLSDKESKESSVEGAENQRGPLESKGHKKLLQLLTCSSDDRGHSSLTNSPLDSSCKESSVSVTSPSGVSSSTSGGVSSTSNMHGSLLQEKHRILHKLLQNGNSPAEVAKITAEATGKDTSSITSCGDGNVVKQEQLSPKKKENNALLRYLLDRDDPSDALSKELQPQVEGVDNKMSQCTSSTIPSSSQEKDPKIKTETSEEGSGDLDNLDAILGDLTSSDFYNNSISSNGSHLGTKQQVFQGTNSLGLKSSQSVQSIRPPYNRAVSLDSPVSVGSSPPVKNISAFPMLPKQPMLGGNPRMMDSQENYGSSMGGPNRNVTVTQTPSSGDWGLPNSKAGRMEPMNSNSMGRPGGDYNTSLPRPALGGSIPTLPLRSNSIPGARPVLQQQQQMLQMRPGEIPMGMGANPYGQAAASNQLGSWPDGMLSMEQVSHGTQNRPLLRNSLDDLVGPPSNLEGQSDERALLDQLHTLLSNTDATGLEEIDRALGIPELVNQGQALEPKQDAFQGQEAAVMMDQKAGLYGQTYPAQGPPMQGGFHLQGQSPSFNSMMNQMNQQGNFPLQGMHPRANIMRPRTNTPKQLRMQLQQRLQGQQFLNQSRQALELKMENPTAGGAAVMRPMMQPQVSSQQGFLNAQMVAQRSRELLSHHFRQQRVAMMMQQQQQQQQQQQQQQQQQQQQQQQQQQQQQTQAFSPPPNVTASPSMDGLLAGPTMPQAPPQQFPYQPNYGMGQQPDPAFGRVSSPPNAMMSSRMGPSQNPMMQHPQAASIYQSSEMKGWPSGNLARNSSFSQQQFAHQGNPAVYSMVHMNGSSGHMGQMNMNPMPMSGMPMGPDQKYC
Sequence of Paired box protein Pax-8 (Q06710 whole entry): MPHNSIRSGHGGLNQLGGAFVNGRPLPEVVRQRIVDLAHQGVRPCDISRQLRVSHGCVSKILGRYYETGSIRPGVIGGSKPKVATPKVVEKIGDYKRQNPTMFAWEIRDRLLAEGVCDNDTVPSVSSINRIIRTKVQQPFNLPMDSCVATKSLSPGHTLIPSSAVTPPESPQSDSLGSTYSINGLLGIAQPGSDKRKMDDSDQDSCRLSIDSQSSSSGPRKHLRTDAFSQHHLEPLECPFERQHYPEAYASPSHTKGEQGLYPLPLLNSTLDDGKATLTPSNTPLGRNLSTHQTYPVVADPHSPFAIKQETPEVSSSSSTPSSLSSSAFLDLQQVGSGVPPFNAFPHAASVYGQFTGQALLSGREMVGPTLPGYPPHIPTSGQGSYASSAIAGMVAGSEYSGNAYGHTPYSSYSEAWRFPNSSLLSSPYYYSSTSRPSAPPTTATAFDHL

With `Cc1cc(=O)[nH]c(-n2[nH]c(C)cc2=O)n1` as the compound, how does the IC50 [1] read?
The IC50 was > 100 µM (inactive).

For `Cc1cc(C)nc(SCC(=O)c2ccc(Cl)cc2Cl)n1`, which IC50 [2] is on record?
Its IC50 is > 100 µM (inactive).

And the IC50 [1]?
Its IC50 is > 100 µM (inactive).

With `Cn1c(=O)c2c(nc(SCC(=O)NCc3ccc4c(c3)OCO4)n2Cc2ccc(Cl)cc2)n(C)c1=O` as the compound, how does the AC50 (HeLa) read?
Its AC50 is 64.6 µM (active).

With `CCCCc1nc(N2CCN(C(=O)c3ccco3)CC2)c(C#N)c2c1CCCC2` as the compound, how does the IC50 (HEK293 [3]) read?
The IC50 was > 20 µM (inactive).

What about the EC50 (Streptococcus) of the same compound?
Its EC50 is 14.4 µM (active).

What about the EC50 (Streptokinase A) of the same compound?
Its EC50 is 8.54 µM (active).

What about the IC50 (HEK293 [4]) of the same compound?
The IC50 was 15.6 µM (active).

What about the IC50 (HEK293 [5]) of the same compound?
Its IC50 is 11.9 µM (active).

What about the EC50 [6] of the same compound?
Its EC50 is 7.59 µM (active).

What about the EC50 (HEK293 [7]) of the same compound?
The EC50 was 10.1 µM (active).

What about the IC50 (HEK293 [8]) of the same compound?
The IC50 was 12.2 µM (inactive).

What about the EC50 [9] of the same compound?
The EC50 was 7.4 µM (active).

For `Cc1nc(SCC(=O)N2CCc3ccccc3C2)c2c(C)c(C)sc2n1`, which IC50 (HEK293 [3]) is on record?
The IC50 was > 20 µM (inactive).

And the EC50 [6]?
The EC50 was 9.64 µM (active).

And the EC50 (HEK293 [7])?
The EC50 was 6.12 µM (active).

And the IC50 (HEK293 [8])?
Its IC50 is 9.12 µM (inactive).

And the IC50 (Prothrombin)?
The IC50 was > 50 µM (not active).

For `COc1ccc(-c2nc(-c3ccc(NC(=O)c4ccc(Br)o4)cc3)no2)cc1OC`, which AC50 [10] is on record?
Its AC50 is 22.8 µM (active).

And the AC50 [11]?
The AC50 was 2.21 µM (active).

What about the EC50 [12] of the same compound?
Its EC50 is > 79.4 µM (not active).

What about the “Absolute IC50 (XBP1)” value (X-box-binding protein 1) of the same compound?
Its value is 10 µM.

What about the EC50 [13] of the same compound?
The EC50 was > 79.4 µM (not active).

What about the EC50 [14] of the same compound?
The EC50 was 49.2 µM (not active).

What about the Ki (fMet-Leu-Phe receptor) of the same compound?
Its Ki is > 66.7 µM (inactive).

Which IC50 (NS3) does the source give for `CNc1ccc(Br)cc(C(=O)/C=C/c2cc(OC)ccc2OC)c1=O` here?
The IC50 was 11.3 µM (not active).

And the IC50 (Vero [15])?
The IC50 was 7.29 µM (active).

What about the AC50 (Paired box protein Pax-8) of the same compound?
The AC50 was 7.83 µM (active).

And the CC50 (Vero [16])?
Its CC50 is 23.1 µM (active).

With `COc1cc(/C=N/NC(=O)Nc2ccccc2)ccc1OCCOc1ccccc1C` as the compound, how does the “Absolute IC50 (XBP1)” value (X-box-binding protein 1) read?
Its value is 10 µM.
